The results in this text go back to US20220113299A1, “METHOD OF DYNAMICS ANALYSIS FOR COMPOUND IN CELL” (Hitachi High-Tech Corporation, priority 2019, published 2022).

The series has as its system hepatocytes. In words: kinetic analysis of compound efflux in cultured hepatocytes (Test Sections 1 to 3, fluorescence measurement). It is filed as in vitro ADME, rat. The note with it: 30 minutes; for ratio of the amount of compound excreted into the bile duct to the totality of compound taken up into the cells (BiRD): (B1-B2)/(C1+C2), EGTA disrupted vs maintained system, 37° C.; for ratio of the amount of compound excreted into the bile duct to the totality of compound taken up into the cells (BiRD) / ratio of the amount of compound excreted via transporter to the amount of compound excreted basolaterally (RexEMTP): pattern 1; for ratio of the amount of compound excreted via transporter to the amount of compound excreted basolaterally (RexEMTP): (B2-B3)/B2, cultured hepatocytes, 37° C. vs 4° C.; for Sup fraction (fraction of the first basolateral efflux), index for tendency to remain or not to remain in the cells: pattern 2: sum of Steps 4, 5 and 6 = 100%, Step 4, 37° C., in %. How it is done:
Hepatocytes were prepared by in-situ collagenase perfusion method. The details are as follows. A rat (5-6 week-old) is anesthetized with pentobarbital and undergoes laparotomy, followed by insertion of a catheter into the portal vein and injection of a preperfusion solution (a Ca^2+ and Mg^2+ free Hanks' solution containing glycol ether diaminetetraacetic acid (EGTA)). After checking that blood is sufficiently removed from the liver, the perfusion is stopped. Perfusion is performed with the perfusate being changed to a collagenase solution. In this embodiment, the perfusion operates with a Hanks' solution containing 0.05% collagenase, but the collagenase solution is not limited to this. After checking that the tissue between the cells has been digested by collagenase, the perfusion is stopped. The liver is excised, sliced in a cooled Hanks' solution, and separated into cells by pipetting. Damaged hepatocytes are removed by centrifugation at 500 G for 5 minutes with an isotonic Percoll solution. The viability of the resulting hepatocytes is determined by the trypan blue-exclusion test. Hepatocytes having a viability of 85% or more are used for culture. Here, hepatocytes having a viability of 85% or more are used for culture, but such culture is not necessarily limited to the condition. In addition, the preparation of hepatocytes is not necessarily limited to that by in situ collagenase perfusion method. The hepatocytes to be used are not limited to those derived from a rat, and the strain of rat is not limited. This embodiment employs hepatocytes, but cells are not limited to this.
(3) Cells prepared by a procedure as above are suspended in a medium. The hepatocytes are suspended at a density of 5×10^5 cells/mL in the medium and plated onto a commercially available culture dish coated with collagen. The density upon plating, the medium, and the culture plate 001 are not limited. The culture plate is illustrated in FIG. 7. A 24-well culture plate having 24 culture regions (wells, 002) is here illustrated, but the culture plate is not limited to this, and any of containers in other shapes may be used as long as it can contain predetermined cells. After plating, culture is started under conditions of 5% CO2 and 37° C. using a CO2 incubator. After 18 hours or more, the first medium change is performed. This embodiment employs a FCS-medium, which is a medium resulting from removal of FCS from the medium (10% FCS+) and supplementation with Matrigel, as the medium to be used for culture 18 hours after the plating. However, the medium can be any medium. After this, medium change with the medium (FCS−) is performed every 24 hours. As described later, testing is performed under three different conditions in Step 5 (Test Sections 1, 2, and 3; described in detail in Step 5), three independent culture plates under the same conditions are prepared at this point. In Steps 0 to 4 and Step 5, the same testing operations are performed in all the three test sections.
The culture supernatant of the cells cultured in Step 0 for 4 days is removed, and 400 μL of Hanks' solution is added as a buffer. The cells are incubated at 37° C. for 10 minutes (FIG. 2, Step 1). The type and amount of buffer are not limited.
The buffer is removed, and then 200 μL of […] carboxydichlorofluorescein (CDF; a fluorescent reagent) is fed to the well. The plate is incubated at 37° C. for 30 minutes and then maintained at 4° C. for 5 minutes (FIG. 2, Step 2). The type, concentration, and amount of the reagent are not limited. CDF emits fluorescence and can therefore be easily quantified as a model reagent with a plate reader. The amount of administration, 200 μL, was chosen so that the cells as a whole in the well would be immersed in the reagent. The concentration of CDF may be a concentration conventionally used for a fluorescence assay of cells. This concentration is preferably applied also as an amount of the reagent for the detection with a plate reader. […]

As for carboxydichlorofluorescein [CDF], the “ratio of the amount of compound excreted into the bile duct to the totality of compound taken up into the cells (BiRD)” value was determined as 18.58; the “ratio of the amount of compound excreted via transporter to the amount of compound excreted basolaterally (RexEMTP)” value is 41.08; the “Sup fraction (fraction of the first basolateral efflux), index for tendency to remain or not to remain in the cells” value is reported as 70.82.
Regarding Rhodamine 123, the “ratio of the amount of compound excreted into the bile duct to the totality of compound taken up into the cells (BiRD)” value came to 4.92; the “ratio of the amount of compound excreted via transporter to the amount of compound excreted basolaterally (RexEMTP)” value is recorded as 52.52; the “Sup fraction (fraction of the first basolateral efflux), index for tendency to remain or not to remain in the cells” value turned out to be 39.29.
